Here are results for five compounds from publication PMC7334220, “Diamond Blackfan anemia is mediated by hyperactive Nemo-like kinase” (Nature Communications, 2020).

SMILES strings stand for the structures. Where two headings read alike, the source gives them in different places.

Experiment [1] addresses T1, NLK (Homo sapiens, UniProt Q9UBE8).
T1 construct: NLK, p38, or ALK5 for in vitro kinase assays were immunopurified from Kp53A1 cells; endogenous in cells; immunoprecipitated with anti-NLK (Abcam AB97642)
T1 sequence (Q9UBE8 1-527): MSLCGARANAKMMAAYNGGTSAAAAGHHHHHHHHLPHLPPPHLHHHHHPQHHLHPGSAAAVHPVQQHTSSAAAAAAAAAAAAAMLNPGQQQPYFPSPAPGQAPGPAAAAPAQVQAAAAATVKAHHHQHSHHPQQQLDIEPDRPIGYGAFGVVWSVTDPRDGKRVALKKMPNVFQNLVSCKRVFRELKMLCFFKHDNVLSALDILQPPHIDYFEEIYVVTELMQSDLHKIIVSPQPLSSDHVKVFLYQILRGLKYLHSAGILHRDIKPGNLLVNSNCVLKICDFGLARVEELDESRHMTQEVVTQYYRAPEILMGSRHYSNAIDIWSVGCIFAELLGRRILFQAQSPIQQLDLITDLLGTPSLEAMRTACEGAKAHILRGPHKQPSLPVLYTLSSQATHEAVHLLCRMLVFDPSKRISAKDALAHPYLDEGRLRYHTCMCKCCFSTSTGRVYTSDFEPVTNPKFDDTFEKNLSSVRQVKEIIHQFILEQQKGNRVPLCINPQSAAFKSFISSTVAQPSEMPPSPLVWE
In words: NLK in vitro kinase assay (NLK, c-Myb, Raptor substrates). The experiment is classed as biochemical. The procedure: Equivalent protein was loaded between samples. b—blue Transduced progenitors were differentiated for 15 days and sorted for surface expression of CD235 + , CD41 + and CD11b + population NLK mRNA was assessed by qRT-PCR. c Control and shRPS19-transduced CB progenitors were differentiated for 10 days prior to separation into CD71^+ and CD71^- populations and assessed for pThr298-NLK phosphorylation by Western blot analysis. d—purple CB CD34 + progenitors were transduced with shRNA against luciferase (shLuc) or RPS19 (shRPS19) along with CFP-NLK and YFP-NLK and differentiated for 10 days. NLK dimerization was quantified by FRET. e—left panel NLK was immunoprecipitated from transduced differentiating CD71^+ and CD71^- populations after 10 days, and incubated in the presence of ATP, Mg^2+ and dephosphorylated NLK (i orange), c-Myb (ii—blue) and Raptor (iii—green) for 30 min at 37 °C. Phosphorylation was detected by a combination of anti^-phosphoserine-HRP and anti-phosphothreonine-HRP antibodies, or mouse anti-phosphoserine and anti-mouse-HRP antibodies. e—right panel For comparison, NLK in vitro kinase activity was assessed from CD235^+, CD41^+ and CD11b^+ populations enriched after identical treatments. f A panel of eight small molecule p38 inhibitors were titrated into in vitro kinase assays in the presence of activated NLK or p38 from stimulated Kp53A1 cells. The IC50 for NLK and p38 for each compound was calculated. The data are represented diagrammatically with IC50 values represented as vertical lines along a concentration gradient for NLK and p38. Kinase activity is represented as blue and the extent of inhibition is depicted in white. […] Bars represent means ± SD with individual data points overlaid. n = 3 independent experiments performed in triplicate.Statistics: two-tailed Student’s t test, significant *p < 0.05. Also see Supplementary Figs. 3 and 4. Source data are provided as a Source Data file. […] Inhibitors were added to cells at indicated concentrations with a final DMSO concentration of 0.5%. […] IC50 calculations were obtained using 8–9 concentrations of compound and generated using the IC50 Calculator software by AAT Bioquest®. NLK, p38, or ALK5 for in vitro kinase assays were immunopurified from Kp53A1 cells. NLK activation was induced by incubating cells at 32° for 24-48 h, p38 by stimulating with IL-3, IL-6, SCF, and Epo at the same concentrations used for differentiating erythroid progenitors.
For NLK kinase analysis, cultures were treated as indicated and lysed for 30 min at 4 °C in 750 μl of kinase lysis buffer (50 mM Tris [pH 7.4], 5 mM EDTA, 250 mM NaCl, 0.1% Triton X-100, 50 mM NaF, 0.1 trypsin inhibitor unit of aprotinin per ml, 50 μg of phenylmethylsulfonyl fluoride per ml, 100 μM sodium vanadate, 1 μg of leupeptin per ml). For TGFβR1 kinase analysis, cells were lysed in membrane kinase buffer (10 mM Tris-HCl (pH8.0), 140 mM NaCl, 300 mM KCl, 0.5% Triton X-100, and 0.5% sodium deoxycholate with complete protease inhibitor cocktail (Roche)). Extracts were clarified, and equivalent protein was incubated overnight at 4 °C with antibody (NLK: #AB97642; Abcam, TGFβR1: V22; Santa Cruz Biotechnology). Immune complexes were collected with Catch and Release® V2.0 Reversible Immunoprecipitation System and diluted in kinase buffer (25 mM Tris [pH 7.4], 10 mM MgCl2, 1 mM dithiothreitol). When cell numbers were limiting, NLK activity was amplified by adding 0.5 µg dephosphorylated NLK prior to performing kinase reaction. 50 μl of kinase buffer containing NLK or TGFβR1 sample and 5 μM ATP was incubated in the presence of biotinylated substrate (NLK, c-Myb, or Raptor for NLK and Smad2 or Smad3 for TGFβR1) immobilized on streptavidin-coated 96-well plates.

In experiment [2] the test system is RPS19-insufficient cord blood CD34+ HSPCs. Nature of the experiment: In vitro differentiation of cord blood CD34+ HSPCs transduced with shRNA against RPS19 (cell count and flow cytometry). The experiment is classed as cell-based, human. How it is done: Cells were plated at 2000 cell per well in 96-well plates in the presence or absence of doxycycline. Relative amounts of live cells were quantified by luciferase-based Cell titer-Glo® assay. b TGFβR1 inhibitors were assessed for their ability to increase cell expansion in RPS19-insuffiency. As a control, vehicle alone (no doxycycline) is represented at the far left while all other samples were treated with doxycycline to induce RPS19-insufficiency. c Kit^+ erythroid progenitors were grown in the absence of doxycycline and in the presence of 10 µM of indicated compound. In addition, cells were treated with 5 ng/ml of TGFβ1 for 5 days before being subjected to Cell titer-Glo® assay. d Differentiating cord blood CD34^+ progenitors were transduced with shRNA against luciferase or RPS19 and treated with inhibitors at working concentrations for TGFβ inhibition every three days. […] Cells were counted and CD235^+ erythroid (i and iii) and CD11b^+ myeloid cell (ii and iv) percentages were determined by flow cytometry. The number of erythroid or myeloid cells is expressed as a percentage of the number of that lineage with no cytokine or drug treatment. Bars represent means ± SD with individual data points overlaid. n = 3 independent experiments performed in triplicate. Statistics: two-tailed Student’s t test, significant *p < 0.05. Also see Supplementary Fig. 1. Erythroid expansion is depicted in red while myeloid is in purple. Source data are provided as a Source Data file.
Cells were counted and assessed for cell surface expression of CD235. b Lin-Kit^+ hematopoietic progenitors were obtained from three mouse embryos expressing tetracycline-inducible shRNA against RPS19 at day E14.5 or three untreated mice, and thee mature RPL11^+/+ or three mature RPL11^+/lox mice treated with tamoxifen for eight weeks. […] Values were expressed as a percentage relative to untreated controls. c, d Intracellular phosphorylation of NLK at Thr298 was determined by capillary electrophoresis using the Peggy Sue™ Automated Western blotting platform. After lysis, 4 µg of protein from the CD235^+ population was probed against pThr298-NLK and normalized to GAPDH. […] After counting the total cell population, the ratio of CD235^+ erythroblasts was determined by flow cytometry and number of CD235^+ erythroblasts calculated. This was expressed as a percentage of the average number of erythroid cells present in untreated healthy controls. f NLK phosphorylation was assessed by capillary electrophoresis as above. Bars represent means ± SD with individual data points overlaid. […] Statistics: two-tailed Student’s t test, significant *p < 0.05. Also see Supplementary Fig. 8. Source data are provided as a Source Data file.
Primary human CD34^+ hematopoietic stem and progenitor cells were purified from cord or peripheral blood (New York Blood Center) or from human fetal liver tissue (Advanced Bioscience Resources and University of California, Los Angeles Center for AIDS Research) by using magnetic-activated cell sorting (Miltenyi Biotec) and were cryopreserved. Upon thawing, cells were cultured in x-Vivo15 media (Lonza) containing 10% fetal bovine serum, fms-related tyrosine kinase 3 (50 ng/ml), […] (50 ng/ml), interleukin-3 (IL-3; 20 ng/ml), interleukin-6 (IL-6; 20 ng/ml), and stem cell factor (50 ng/ml). When applied, TGFβ1 was added at 5 ng/ml. Kp53A1 cells were obtained from Javier Leon and cultured in DMEM supplemented with 10% fetal bovine serum at 37 or 32 °C.
For orientation: Flow cytometry measures light scatter and fluorescence of single cells or particles in a stream.

In experiment [3] the test system is p38. As to conditions: reported, no reference given; read-out: reported IC50 against p38; cited from earlier work.
Experiment [4] has as its system ribosome-competent cord blood CD34+ HSPCs (shLuc). Nature of the experiment: In vitro differentiation of cord blood CD34+ HSPCs transduced with control shRNA (luciferase). The class given is cell-based, human. As to conditions: ribosome-competent cells; 5 ng/ml TGFβ1; 5 µM compound; 15 days; Fig. 1e. The procedure: Lin-Kit^+ fetal liver cells were obtained from mouse embryos expressing tet-on shRNA against RPS19, at day E14.5-15.5. Cells were plated at 2000 cell per well in 96-well plates in the presence or absence of doxycycline. Relative amounts of live cells were quantified by luciferase-based Cell titer-Glo® assay. b TGFβR1 inhibitors were assessed for their ability to increase cell expansion in RPS19-insuffiency. As a control, vehicle alone (no doxycycline) is represented at the far left while all other samples were treated with doxycycline to induce RPS19-insufficiency. c Kit^+ erythroid progenitors were grown in the absence of doxycycline and in the presence of 10 µM of indicated compound. In addition, cells were treated with 5 ng/ml of TGFβ1 for 5 days before being subjected to Cell titer-Glo® assay. d Differentiating cord blood CD34^+ progenitors were transduced with shRNA against luciferase or RPS19 and treated with inhibitors at working concentrations for TGFβ inhibition every three days. […] Cells were counted and CD235^+ erythroid (i and iii) and CD11b^+ myeloid cell (ii and iv) percentages were determined by flow cytometry. The number of erythroid or myeloid cells is expressed as a percentage of the number of that lineage with no cytokine or drug treatment. […]
Fig. 8 NLK inhibition increases expansion of erythroid progenitors from human and murine models of DBA. a Human cord blood CD34^+ progenitors were transduced with lentivirus co-expressing GFP with shRNA against luciferase (shLuc), RPS19 (shRPS19), or RPL11 (shRPL11). […] Cells were counted and assessed for cell surface expression of CD235. b Lin-Kit^+ hematopoietic progenitors were obtained from three mouse embryos expressing tetracycline-inducible shRNA against RPS19 at day E14.5 or three untreated mice, and thee mature RPL11^+/+ or three mature RPL11^+/lox mice treated with tamoxifen for eight weeks. […] Values were expressed as a percentage relative to untreated controls. c, d Intracellular phosphorylation of NLK at Thr298 was determined by capillary electrophoresis using the Peggy Sue™ Automated Western blotting platform. […]

Setting [5] is: Fig. 3f, activated NLK from stimulated Kp53A1 cells, read-out: NLK Observed IC50.

As usually defined, the IC50 is the concentration that gives 50% inhibition. As to `Cn1c(NC[C@@H](N)Cc2ccccc2)nc(-c2ccncc2)c(-c2ccc3ccccc3c2)c1=O` [AMG-548], the IC50 in experiment [1] (setting [5]) was 3.6 nM.
In the case of `Cc1cccc(-c2nn3c(c2-c2ccnc4ccc(C(N)=O)cc24)CCC3)n1` [Galunisertib], in experiment [2] (CD235+ erythroid cells after 15 days, inhibitors at working concentrations for TGFβ inhibition every three days, Fig. 1d), the “increase of erythropoiesis in RPS19-insufficiency compared with control treated cells” value worked out at 3.2 fold. Further, the half-maximal inhibitory concentration (IC50) in experiment [3] is 405 nM; in experiment [1] (Supplementary Fig. 1e, read-out: IC50 against NLK) it was 1340 nM. In experiment [1] (added to activated NLK in vitro, Supplementary Fig. 1c), the “inhibition of NLK-mediated phosphorylation of NLK substrates NLK, c-Myb and Raptor” value is recorded as 40–45%.
On to `C[S+]([O-])c1ccc(-c2nc(-c3ccncc3)c(-c3ccc(F)cc3)[nH]2)cc1` (centres unmarked) [SB203580], for which the “erythroid expansion (CD235) in RPS19-insufficient HSPCs” value in experiment [2] (12 days, recommended concentrations, rebuttal Experiment 12) is given as “significantly increased”. Further, in experiment [2] (CD235+, 12 days, recommended concentrations, Supplementary Fig. 2b), the “improvement of erythropoiesis (comparison of SD208 with p38 inhibitors)” value is “improved erythropoiesis”.
Regarding `Cc1cccc(-c2[nH]c(C(C)(C)C)nc2-c2ccc3nccnc3c2)n1` [SB525334], the “erythropoiesis, % of controls, in TGFβ-treated cells” value in experiment [2] (RPS19-insufficient cells, 5 ng/ml TGFβ1, 5 µM, Fig. 1e.iii) was 128.6%. Besides, in experiment [2] (RPS19-insufficient cells, 5 µM, Fig. 1e.iii), the “effect on erythropoiesis of cells not treated with TGFβ” value was “did not influence”. Besides, in experiment [4], the “restoration of erythroid and myeloid expansion of TGFβ-treated cells” value was “restored”.
Take `CCc1nc(-c2cccc(C)c2)c(-c2ccnc(NC(=O)c3ccccc3)c2)s1` [TAK-715]: the IC50 in experiment [1] (setting [5]) was 9300 nM.
